Assay results reported in ChEMBL document CHEMBL1201862, “PubChem BioAssay data set” (2004).
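Tested at 5 concentrations; 48 h exposure; 96-well plates; endpoints linearly interpolated, else capped at highest concentration. GI50 marks 50% less growth.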 Active and inactive are the calls of the source. Cut-off read from the data, not from the text of the source: active = GI50 up to about 1.1 µM and inactive = higher.

Key:
Assay in all cases: growth of human tumour cells (NCI), 48 h
A498 = tested on: A498
A549 = tested on: A549
BT-549 = tested on: BT-549
CAKI-1 = tested on: CAKI-1
CCRF-CEM = tested on: CCRF-CEM
COLO 205 = tested on: COLO 205
EKVX = tested on: EKVX
HOP-92 = tested on: HOP-92
HT-29 = tested on: HT-29
LOX IMVI = tested on: LOX IMVI
MCF7 = tested on: MCF7
MDA-MB-231 = tested on: MDA-MB-231
OVCAR-3 = tested on: OVCAR-3
SF-268 = tested on: SF-268
SF-295 = tested on: SF-295
SNB-19 = tested on: SNB-19
SR = tested on: SR
SW-620 = tested on: SW-620
UACC-62 = tested on: UACC-62
MOLT-4 = tested on: MOLT-4

Measured: GI50

Nc1c(S(=O)(=O)O)cc(S(=O)(=O)O)c2ccc(/N=N/c3ccccc3)c(O)c12
inactive: A498 > 100 µM | A549 > 100 µM | BT-549 > 100 µM | CAKI-1 > 100 µM | CCRF-CEM > 100 µM | COLO 205 > 100 µM | EKVX > 100 µM | HOP-92 > 100 µM | HT-29 > 100 µM | LOX IMVI > 100 µM | MCF7 > 100 µM | MDA-MB-231 > 100 µM | OVCAR-3 > 100 µM | SF-268 > 100 µM | SF-295 > 100 µM | SNB-19 > 100 µM | SR > 100 µM | SW-620 > 100 µM | UACC-62 > 100 µM

CCOC(=O)CCCc1cc(O)c2c(C)c3[nH]c4ccc(Cl)cc4c3c(C)c2n1
inactive: A498 15.3 µM | A549 19.6 µM | BT-549 19 µM | CAKI-1 24.9 µM | CCRF-CEM 42.5 µM | COLO 205 41.8 µM | EKVX 79.1 µM | HOP-92 22 µM | HT-29 23.7 µM | LOX IMVI 38.7 µM | MCF7 15.9 µM | MDA-MB-231 23.9 µM | MOLT-4 49.8 µM | OVCAR-3 17.7 µM | SF-268 26.2 µM | SF-295 28.8 µM | SNB-19 23.7 µM | SR 44.4 µM | SW-620 32.2 µM

COc1ccccc1/C=N/Nc1nnc2c3ccccc3c3ncccc3c2n1
inactive: A549 > 100 µM | BT-549 41.7 µM | CAKI-1 > 100 µM | CCRF-CEM 17.6 µM | COLO 205 > 100 µM | EKVX 43.1 µM | HOP-92 14.6 µM | HT-29 57.4 µM | LOX IMVI 64.1 µM | MCF7 > 100 µM | MDA-MB-231 26.2 µM | MOLT-4 60.3 µM | OVCAR-3 47.2 µM | SF-268 29.9 µM | SF-295 6.14 µM | SNB-19 39.2 µM | SR 39.9 µM | SW-620 > 100 µM | UACC-62 48.8 µM

NC1=Nc2ncccc2C(=O)NN1
inactive: A498 > 10 µM | A549 > 10 µM | BT-549 > 10 µM | CCRF-CEM > 10 µM | EKVX > 10 µM | HOP-92 > 10 µM | HT-29 > 10 µM | LOX IMVI > 10 µM | MCF7 > 10 µM | MDA-MB-231 > 10 µM | MOLT-4 > 10 µM | OVCAR-3 > 10 µM | SF-268 > 10 µM | SF-295 > 10 µM | SNB-19 > 10 µM | SR > 10 µM | SW-620 > 10 µM | UACC-62 > 10 µM

CC(=O)O/C=C1/C[C@H]2[C@@H]3CCC4CC(C(C)=O)CC[C@]4(C)[C@H]3CC[C@]2(C)C1=O (stereo partly specified)
inactive: A498 > 100 µM | BT-549 > 100 µM | CAKI-1 > 100 µM | CCRF-CEM 29.1 µM | COLO 205 > 10 µM | EKVX > 100 µM | HOP-92 41 µM | HT-29 51.4 µM | LOX IMVI 33.3 µM | MCF7 38 µM | MDA-MB-231 > 100 µM | MOLT-4 39.1 µM | OVCAR-3 33.2 µM | SF-268 > 100 µM | SF-295 49.1 µM | SNB-19 53.2 µM | SR 44.1 µM | SW-620 > 100 µM | UACC-62 > 100 µM

CCCCC1Cc2cc(OC)ccc2-c2nc3cc(OC)ccc3n21.CCCCC1Cc2cc(OC)ccc2-c2nc3ccc(OC)cc3n21 (stereo unspecified)
inactive: A549 14 µM | BT-549 18.8 µM | CAKI-1 15.6 µM | CCRF-CEM 13.8 µM | COLO 205 4.9 µM | EKVX 12.6 µM | HOP-92 2.06 µM | HT-29 10.7 µM | LOX IMVI 16.4 µM | MCF7 17.2 µM | MDA-MB-231 13.1 µM | MOLT-4 10.2 µM | OVCAR-3 15 µM | SF-268 17.6 µM | SNB-19 9.73 µM | SR 11.6 µM | SW-620 14.5 µM | UACC-62 12.9 µM

Cc1nc2ccc(/N=N/N(C)C)cc2[nH]1
inactive: A498 > 100 µM | A549 > 100 µM | BT-549 86.5 µM | CAKI-1 > 100 µM | CCRF-CEM 98.9 µM | COLO 205 > 100 µM | EKVX > 100 µM | HT-29 > 100 µM | LOX IMVI > 100 µM | MCF7 > 100 µM | MDA-MB-231 > 100 µM | MOLT-4 > 100 µM | OVCAR-3 > 100 µM | SF-268 > 100 µM | SF-295 > 100 µM | SNB-19 > 100 µM | SR > 100 µM | SW-620 > 100 µM | UACC-62 > 100 µM
